Assay results reported in patent publication US20260216156A1, “METHODS AND COMPOSITIONS FOR THE TREATMENT OF HEARING DISORDERS” (Gateway Biotechnology, Inc., priority 2023, published 2026).
Read-outs that look alike come from different tables or passages of the source.

Experiments:
[1] = Microemulsion formulation: NMDP solubility and droplet size; assay type: physicochemical; conditions: aqueous with cosolvent or surfactant or cyclodextrin, 8% Labrafil M 1944CS, 30% Cremophor RH 40/ethanol (3:1) and water
[2] = Ciliotoxicity of microemulsion formulation; conditions: microemulsion: 8% Labrafil M 1944CS, 30% Cremophor RH 40/ethanol (3:1) and water
[3] = Pharmacokinetics after intranasal administration, blood samples, NMDP by HPLC; assay type: in vivo
[4] = test system: mice suffering from noise induced tinnitus; experiment: Sound-based avoidance detection (SBAD), No-Go trials; assay type: in vivo; conditions: for No-Go trial correct rate: tinnitus mice
Experimental: Using a shuttle box divided into two compartments, mice were trained to cross from side to side with sound cues in the “Go” trials and remain still in the absence of sound in the “No-Go” trials for 15 days. […] The sound cues were randomly played as white noise or narrow-band noise at 5, 10, 16, 20, and 32 kHz with sound intensities randomly at 75, 80, or 85 dB. […] Additionally, a hurdle was added on training 11 to reinforce the training. After the 15th training day, mice were tested for 3 days to obtain a baseline score to be compared after noise exposure, as well as retraining for 3 days. Following the successful completion of training so that mice reached a high percentage of success in the trials, the mice were exposed to a noise-induced trauma for tinnitus. To ensure that the mice still have their hearing, one ear was protected with an ear plug, while the other ear was exposed to the noise. The mice were placed in a sound booth where they were exposed to 120 dB broadband noise at 4-25 kHz for 2-4 hours. Following the noise exposure, the mice were housed for one month, and then tested to see if they have developed tinnitus. In these testing periods, the mice were tested for three days in the shuttle boxes, where they underwent the Go and No-Go trials, however in the No-Go trials the mice were not shocked, as it is expected that mice with tinnitus would cross compartments in the absence of a sound cue. The mice were continued to be shocked in the Go trials in order to ensure that they have retained their hearing and can hear the sound cues. […] To insure there is a significant difference in the No-Go trial scores, chi-square tests were completed comparing the post-noise exposure tests to the baseline tests. However, if tinnitus is not present in the mice, tests were done after waiting one more month, and another if needed. Mice received dosages of NMDP initially via intraperitoneal injection (i.p.). The Go and No-Go scores for the tests were compared using chi-square tests in Social Science Statistics. […] Following this conclusion, the mice were tested accordingly to determine if their No-Go scores could be improved by different drug doses and combinations.

[5] = test system: mice suffering from noise induced tinnitus; experiment: Sound-based avoidance detection (SBAD), Go trials; assay type: in vivo
Experimental: Using a shuttle box divided into two compartments, mice were trained to cross from side to side with sound cues in the “Go” trials and remain still in the absence of sound in the “No-Go” trials for 15 days. […] The sound cues were randomly played as white noise or narrow-band noise at 5, 10, 16, 20, and 32 kHz with sound intensities randomly at 75, 80, or 85 dB. […] Additionally, a hurdle was added on training 11 to reinforce the training. After the 15th training day, mice were tested for 3 days to obtain a baseline score to be compared after noise exposure, as well as retraining for 3 days. Following the successful completion of training so that mice reached a high percentage of success in the trials, the mice were exposed to a noise-induced trauma for tinnitus. To ensure that the mice still have their hearing, one ear was protected with an ear plug, while the other ear was exposed to the noise. The mice were placed in a sound booth where they were exposed to 120 dB broadband noise at 4-25 kHz for 2-4 hours. Following the noise exposure, the mice were housed for one month, and then tested to see if they have developed tinnitus. In these testing periods, the mice were tested for three days in the shuttle boxes, where they underwent the Go and No-Go trials, however in the No-Go trials the mice were not shocked, as it is expected that mice with tinnitus would cross compartments in the absence of a sound cue. The mice were continued to be shocked in the Go trials in order to ensure that they have retained their hearing and can hear the sound cues. […] To insure there is a significant difference in the No-Go trial scores, chi-square tests were completed comparing the post-noise exposure tests to the baseline tests. However, if tinnitus is not present in the mice, tests were done after waiting one more month, and another if needed. Mice received dosages of NMDP initially via intraperitoneal injection (i.p.). The Go and No-Go scores for the tests were compared using chi-square tests in Social Science Statistics. […]

[6] = cited from earlier work
[7] = cited from earlier work; for Bioavailability outside of the central nervous system: humans
[8] = after feeding to rats; cited from earlier work
[9] = anesthetized rats, cited from earlier work

COCCOC(=O)C1=C(C)NC(C)=C(C(=O)OC(C)C)C1c1cccc([N+](=O)[O-])c1 (centres unmarked) [NMDP, nimodipine]
solubility [1]: ≤ 6400 µg/mL
ciliotoxicity [2]: no ciliotoxicity
pharmacokinetics, intranasal versus intravenous ([3]; Example 1: carrier, citrate buffer, benzalkonium chloride, water, about 50 mg/mL, 50 μL per nasal cavity): comparable to that of intravenously administered NMDP
pharmacokinetics, intranasal versus intravenous ([3]; Example 2: carriers, non-aqueous solvent, surfactant, about 50 mg/mL, 50 μL per nasal cavity): comparable to that of intravenously administered NMDP
pharmacokinetics, intranasal versus intravenous ([3]; Example 3: mPEG350, PEG400, water, no non-ionic surfactant, about 100 mg/ml, 50 μL per nasal cavity): comparable to that of intravenously administered NMDP
pharmacokinetics, intranasal versus intravenous ([3]; Example 4: mPEG350, PEG400, water, ethanol, no non-ionic surfactant, about 100 mg/mL, 50 μL per nasal cavity): comparable to that of intravenously administered NMDP
pharmacokinetics, intranasal versus intravenous ([3]; Example 7: six volunteer subjects with tinnitus, nasal spray of Example 5, 50 μL per nare, about 20 mg): comparable to that of intravenously administered NMDP
pharmacokinetics, intranasal versus intravenous ([3]; Example 8: vesicular composition (phospholipid, C2-C4 alcohols, water), about 200 mg/mL, 50 μL per nasal cavity): comparable to that of intravenously administered NMDP
bioavailability ([3]; human, plasma, inhaled or intranasal, microemulsion, single intranasal administration, 2 mg/kg, read-out: absolute bioavailability): ~32%
time of plasma concentration peak ([3]; microemulsion, single intranasal administration, 2 mg/kg): 1 h
No-Go scores: behavioral changes ([4]; mice, 10, 30, and 50 mg/kg i.p.): did not cause any behavioral changes
No-Go trial correct rate ([4]; 30 mg/kg i.p.): ~100 % correct
No-Go trial correct rate ([4]; 50 mg/kg i.p.): ~100 % correct
No-Go trial correct rate ([4]; intranasal formulation of Example 15 F1, 0.9 mg/mouse (or 30 mg/kg)): ~100 % correct
Go trial correct rate ([5]; 10 mg/kg i.p.): ~100 % correct
Go trial correct rate ([5]; 30 mg/kg i.p.): ~100 % correct
Go scores: effect on ability to hear the sounds presented ([5]; i.p.): did not have an effect
Water solubility [6]: 12 µg/mL
water solubility (in words) [6]: poor water solubility
solubility in ethanol ([6]; ethanol): freely soluble
share of NMDP reaching the brain ([7]; due to high affinity binding of plasma proteins): 5%
Bioavailability outside of the central nervous system ([7]; intravenous administration): 100%
Bioavailability outside of the central nervous system ([7]; oral administration, extensive first-pass metabolism): 3-30%

Phaseolus vulgaris hemagglutinin
oral bioavailability [8]: more than 10%

human growth hormone: human growth hormone, nasal bioavailability modestly increased by N-acetyl-L-cysteine
nasal bioavailability ([9]; with N-acetyl-L-cysteine): 12.2%
nasal bioavailability ([9]; without N-acetyl-L-cysteine): 7.5%
